For assay [1], the system named is mouse hepatic fibrosis model induced by CCl4. The assay is described as follows: Mouse hepatic fibrosis model induced by carbon tetrachloride (CCl4). The note with it: gavage 5 mg/kg once a day, 6 weeks. Format: in vivo. On the procedure:
Mouse hepatic fibrosis model: male C577BL/6 mice (8-week old) were used with 8 in each group and were injected intra-abdominally with 0.2 ml (diluted by olive oil) of 10% CCl4 twice a week; and a control group was injected intra-abdominally with an equal volume of olive oil for 18 consecutive weeks.

For assay [2], the system named is chronic lymphocytic leukemia. The following applies: phase II clinical trials of chronic lymphocytic leukemia; cited from earlier work.

For `c1cn2cc(-c3ccc4cn[nH]c4c3)nc(Nc3ccc(N4CCOCC4)cc3)c2n1` [GS-9973, Entospletinib], in assay [1], the “generation of hepatic collagen (Sirius Red staining)” value was “remarkably inhibit”. Besides, the effective rate in assay [2] is 91%.

The values above are taken from US20180044685A1, “APPLICATION OF SYK SERVING AS THERAPEUTIC TARGET FOR HEPATIC FIBROSIS/HEPATIC CIRRHOSIS” (priority 2015, published 2018).
